In patent US10570213B2, “Methods of treating cancers using PD-1 axis binding antagonists and taxanes” (Genentech, Inc., priority 2013, dated 2020):

System: MC38 colorectal tumor
Experiment: syngeneic MC38 colorectal tumor model in C57BL/6 mice
Assay type: in vivo
Settings: FIG. 1 experiment
Procedure: Mice with established subcutaneous MC38 tumors of approximately 100-200 mm^3 were treated with single-dose carboplatin at 80 mg/kg by intraperitoneal (IP) injection plus paclitaxel at 10 mg/kg injected intravenously (IV), and anti-gp120 antibody or anti-PD-L1 (clone 25A1 mIgG2a.DANA) at 10 mg/kg dosed 3 times a week for 3 weeks. N=10 mice/group.
Mice with established subcutaneous MC38 tumors of approximately 100-200 mm^3 were treated with a single dose of either saline or dexamethasone at 4 mg/kg IV and 12 hours later, treated with either control anti-gp120 antibody or anti-PD-L1 (clone 25A1.mIgG2a.DANA) at 10 mg/kg IP 3 times a week for 3 weeks. N=10 mice/group.
Mice with established subcutaneous MC38 tumors of approximately 300 mm^3 were treated with anti-gp120 control antibody or anti-PD-L1 antibody (clone YW243.55.570 mIgG2a.DANA) administered by IP injection at 10 mg/kg 3 times a week for 3 weeks, plus saline or carboplatin at 75 mg/kg IP weekly for 3 weeks plus ABRAXANE® at 15 mg/kg iv weekly for 3 weeks, as indicated. N=8 mice/group.
MC38 colorectal tumor cell lines were maintained at Genentech. 7-10 week old C57BL/6 female mice (Charles River Laboratories; Hollister, Calif.) were inoculated subcutaneously in the right unilateral flank with 0.1 million MC38 cells. […]

**Q.** paclitaxel+carboplatin was tested. Which “mice with partial response (in words)” value (N=10 mice/group) did it give?
**A.** no mice

**Q.** And the “time to progression (TTP), 5× the initial tumor volume” value (tumors approximately 100-200 mm^3 at start, anti-PD-L1 clone 25A1)?
**A.** 15.5 days
